Assay [1] concerns IGF1-induced S6 phosphorylation. The experiment in a line: Growth factor induced S6 ribosomal protein phosphorylation in primary human fibroblasts. The assay is classed as cell-based. To be noted: normal human dermal fibroblasts (NHDF), 10 nM IGF-1; read-out: Inhibition of IGF1-induced S6 phosphorylation IC50. Here is the method:
Growth Factor Induced […] Ribosomal Protein Phosphorylation in Primary Human Fibroblasts.
Phosphorylation of S6 ribosomal protein in response to growth factor stimulation of normal human dermal fibroblasts (NHDF) was used to assess compound potency in inhibiting IGF-1 induced signal transduction in cells, and selectivity towards EGF and PDGF stimulus. NHDF cells obtained from PromoCell (Heidelberg, Germany), were maintained at 37° C. in a humidified atmosphere with 5% CO2 in complete Fibroblast Growth Medium (PromoCell). For assay, NHDF were seeded in 384-well tissue culture plates (clear- and flat-bottomed black plates; Matrix Technologies Inc., Hudson, N.H., USA) at a density of 5000 cells/well in serum-free medium containing 0.1% bovine serum albumin (BSA) and incubated for 5 days. Starved cells were treated for 1 hour with desired doses of compounds and then stimulated for a further 2 hours with either 10 nM IGF-1 (Invitrogen Corp., CA, USA), 10 nM EGF (Gibco BRL, USA) or 1 nM PDGF-B/B (Roche Diagnostics GmbH, Germany). Cells were then fixed in PBS/3.7% paraformaldehyde for 20 minutes at room temperature, washed ×2 with PBS, and permeabilized with PBS/0.3% Triton X-100 for 15 minutes. Wells were then saturated with PBS/1% non-fat dry milk (Bio-Rad Laboratories, Hercules, Calif., USA) for 1 hour, and then probed for 1 hour at 37° C. with anti-phospho-S6 (Ser 235/236) antibody (Cell Signaling Technology, Beverly, Mass., USA, cat. #2211) at 1/200 dilution in PBS/1% milk/0.3% Tween 20. […] Fluorescence images in the DAPI and Cy5™ channels were automatically acquired, stored and analysed using a Cellomics ArrayScan™ IV instrument (Cellomics, Pittsburgh, USA); the Cellomics Cytotoxicity Algorithm was used to quantify cytoplasmic fluorescence associated with phospho-S6 (Cy5™ signal parameter: “Mean Lyso Mass-pH”) for each cell in 10 fields/well, and eventually expressed as a mean population value. […]

Assay [2] concerns the target T1, IGF1R (Homo sapiens, UniProt P08069). The experiment in a line: Western blot analysis of receptor phosphorylation following stimulation with IGF-1 in MCF-7 human breast cancer cells. The assay is classed as cell-based. Also on record: endogenous in cells; host or cells: MCF-7 (ATCC#HTB-22). The note with it: starved MCF-7 cells, increasing concentrations of compound, then 10 nM IGF1; pIGF1R band, FIG. 1. The protocol:
[formula] where νb is the baseline velocity, ν is the observed reaction velocity, ν0 is the velocity in the absence of inhibitors, and [I] is the inhibitor concentration. Cell-Based Assays for Inhibitors of IGF-1R Kinase Activity Western Blot Analysis of Receptor Phosphorylation Following Stimulation with IGF-1 in MCF-7 Human Breast Cancer Cells
MCF-7 cells (ATCC#HTB-22) were seeded in 12-well tissue culture plates at 2×10^5 cells/well in E-MEM medium (MEM+Earle's BSS+2 mM glutamine+0.1 mM non-essential amino acids)+10% FCS, and incubated overnight at 37° C., 5% CO2, 100% relative humidity. Cells were then starved by replacing E-MEM+10% FCS with E-MEM+0.1% BSA, and incubating overnight. After this incubation, wells were treated with desired concentrations of compound for 1 hour at 37° C., and were then stimulated with 10 nM recombinant human IGF-1 (Invitrogen, Carlsbad, Calif., USA) for 10 minutes at 37° C. Cells were then washed with PBS and lysed in 100 microL/well cell lysis buffer (M-PER Mammalian Protein Extraction Reagent [Product #78501, Pierce, Rockford, Ill., USA]+10 mM EDTA+Protease inhibitor cocktail [Sigma-Aldrich product #P8340]+phosphatase inhibitor cocktail [Sigma-Aldrich products #P2850+#P5726]). Cell lysates were cleared by centrifugation at 10,000×g for 5 minutes, and 10 microg/lane of cleared lysate protein were run on NuPAGE gels (NuPAGE 4-12% 10-lane Bis-Tris gels, Invitrogen) with MOPS running buffer, then transferred onto Hybond-ECL nitrocellulose filters (Amersham Biosciences, Little Chalfont, Buckinghamshire, UK) using Mini PROTEAN II chambers (Bio-Rad Laboratories, Hercules, Calif., USA). […]
A general note: A western blot detects proteins with antibodies after separation by electrophoresis.
Target sequence in this assay (P08069 31-1367): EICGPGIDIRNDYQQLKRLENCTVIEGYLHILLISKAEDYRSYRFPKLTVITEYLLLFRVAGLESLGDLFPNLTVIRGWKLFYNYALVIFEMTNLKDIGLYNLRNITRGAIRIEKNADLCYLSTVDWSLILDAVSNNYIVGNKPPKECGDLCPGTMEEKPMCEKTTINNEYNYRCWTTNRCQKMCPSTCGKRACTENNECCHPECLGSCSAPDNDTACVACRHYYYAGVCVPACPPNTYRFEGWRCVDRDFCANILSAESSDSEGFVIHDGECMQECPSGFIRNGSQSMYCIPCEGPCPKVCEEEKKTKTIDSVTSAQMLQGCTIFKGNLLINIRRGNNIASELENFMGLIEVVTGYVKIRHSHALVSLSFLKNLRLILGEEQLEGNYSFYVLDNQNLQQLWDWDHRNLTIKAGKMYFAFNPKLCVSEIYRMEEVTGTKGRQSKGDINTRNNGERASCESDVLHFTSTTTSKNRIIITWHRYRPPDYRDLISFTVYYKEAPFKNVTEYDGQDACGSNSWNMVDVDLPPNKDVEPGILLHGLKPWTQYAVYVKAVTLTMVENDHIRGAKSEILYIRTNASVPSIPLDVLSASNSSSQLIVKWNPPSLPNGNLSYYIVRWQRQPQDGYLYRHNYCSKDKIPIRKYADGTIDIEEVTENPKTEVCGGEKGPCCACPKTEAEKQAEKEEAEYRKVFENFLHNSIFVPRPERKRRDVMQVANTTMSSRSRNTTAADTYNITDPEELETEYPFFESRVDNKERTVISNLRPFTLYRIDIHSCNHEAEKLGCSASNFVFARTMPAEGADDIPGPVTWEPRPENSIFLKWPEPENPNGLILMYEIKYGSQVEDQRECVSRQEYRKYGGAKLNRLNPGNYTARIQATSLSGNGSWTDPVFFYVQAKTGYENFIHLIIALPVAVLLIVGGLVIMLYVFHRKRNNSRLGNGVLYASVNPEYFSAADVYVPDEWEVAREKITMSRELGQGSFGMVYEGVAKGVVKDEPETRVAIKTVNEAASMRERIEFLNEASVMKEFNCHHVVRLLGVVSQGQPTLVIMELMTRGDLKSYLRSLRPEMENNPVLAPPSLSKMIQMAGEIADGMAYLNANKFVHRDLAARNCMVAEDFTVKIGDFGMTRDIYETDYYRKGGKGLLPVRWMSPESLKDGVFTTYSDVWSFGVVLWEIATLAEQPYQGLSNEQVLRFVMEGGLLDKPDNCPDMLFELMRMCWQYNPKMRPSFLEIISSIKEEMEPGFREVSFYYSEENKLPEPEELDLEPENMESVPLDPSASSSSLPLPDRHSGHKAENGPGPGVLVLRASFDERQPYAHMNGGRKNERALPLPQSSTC

In assay [3] the target is T1, IGF1R. Put plainly: Biochemical assay for inhibitors of IGF-1R kinase activity (trans-phosphorylation, 33P-ATP, Dowex). Also noted: amino acid residues 960-1367 of precursor protein; made in house; host or cells: H5 insect cells (baculovirus; virus produced in Sf21 cells). To be noted: read-out: IGF1R IC50 (μM) Biochemical assay. The protocol:
Human cDNA was used as template for amplification by polymerase chain reaction (PCR) of the predicted cytoplasmic portion of IGF-1R (amino acid residues 960-1367 of precursor protein; see NCBI Entrez Protein Accession #P08069) which includes the entire kinase domain. PCR was conducted using the forward primer sequence 5′-[…]-3′ (SEQ ID NO:1) and the reverse primer sequence 5′-[…]-3′ (SEQ ID NO:2). In order to facilitate subsequent cloning steps, both primers comprise a BamHI restriction endonuclease site sequence. This PCR product was cloned in frame using BamHI sticky ends into a transfer vector for the baculovirus expression system, pVL1392 (Pharmingen), previously modified by insertion into the pVL1392 multiple cloning site of sequences encoding Glutathione S-transferase (GST) fusion protein, PreScission protease cleavage site and partial MCS cassette derived from the pGex-6P plasmid (Amersham BioSciences). Insertion of the IGF-1R PCR product described above into the pGex-6P derived BamHI site of the modified pVL1392 vector results in an open reading frame corresponding to the pGEX-6P GST protein and PreScission peptide fused with the human IGF-1R cytoplasmic domain. In order to obtain fusion protein, Sf21 insect cells (Invitrogen) are cotransfected with 2 microg of purified plasmid and 1 microg of virus DNA (BaculoGold™ Transfection Kit, Pharmingen), as described in the Baculovirus Instruction manual (Pharmingen). A first amplification of the virus is performed using 600 microL of cotransfected virus on 6×10^6 Sf21 in a monolayer culture, in 12 mL of medium (TNM-FH Grace's medium—Pharmingen). After 3 days the medium is collected, centrifuged and transferred to a sterile tube. A second amplification is prepared with the same method using 2 mL on 3×10^7 cells, diluted in 40 mL of medium. For the third amplification of virus, 1 mL of supernatant from the second round are used per 3×10^7 cells diluted in 40 mL of medium. […]
The inhibitory activity of putative kinase inhibitors and the potency of selected compounds were determined using a trans-phosphorylation assay. […]
Target sequence in this assay (P08069 960-1367): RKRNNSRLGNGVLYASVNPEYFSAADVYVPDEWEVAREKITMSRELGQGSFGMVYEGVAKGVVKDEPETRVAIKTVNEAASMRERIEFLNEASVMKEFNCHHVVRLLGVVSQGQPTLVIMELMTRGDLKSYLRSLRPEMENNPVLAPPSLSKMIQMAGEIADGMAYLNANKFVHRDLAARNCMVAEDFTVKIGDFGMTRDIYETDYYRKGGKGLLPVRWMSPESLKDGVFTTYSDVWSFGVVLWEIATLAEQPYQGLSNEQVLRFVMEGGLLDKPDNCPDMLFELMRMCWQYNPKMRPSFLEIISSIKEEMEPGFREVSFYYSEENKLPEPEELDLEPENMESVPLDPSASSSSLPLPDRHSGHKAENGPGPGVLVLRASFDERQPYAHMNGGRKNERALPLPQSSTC

For orientation: IC50 means the concentration that inhibits the measured activity by half. As for `CN1CCN(c2ccc(C(=O)Nc3n[nH]c4c3CN(S(=O)(=O)c3cc(F)cc(F)c3)CC4)c(NC(=O)c3ccc[nH]3)c2)CC1` [Compound 28, 1H-Pyrrole-2-carboxylic acid [2-[5-(3,5-difluoro-benzenesulfonyl)-4,5,6,7-tetrahydro-1H-pyrazolo[4,3-c]pyridin-3-ylcarbamoyl]-5-(4-methyl-piperazin-1-yl)-phenyl]-amide], the IC50 in assay [1] amounted to 80 nM; on IGF1R [3] it was 0.049 µM. Moreover, the “inhibition of IGF1R auto-phosphorylation” value at IGF1R [2] was “inhibition of IGF1-induced IGF1R auto-phosphorylation”.

As for `CN1CCN(c2ccc(C(=O)Nc3n[nH]c4c3CN(S(=O)(=O)c3cc(F)cc(F)c3)CC4)c(NCc3ccco3)c2)CC1` [Compound 52, N-[5-(3,5-Difluoro-benzenesulfonyl)-4,5,6,7-tetrahydro-1H-pyrazolo[4,3-c]pyridin-3-yl]-2-[(furan-2-ylmethyl)-amino]-4-(4-methyl-piperazin-1-yl)-benzamide], the IC50 turned out to be 640 nM in assay [1] and 0.055 µM on IGF1R [3]. Moreover, the “inhibition of IGF1R auto-phosphorylation” value at IGF1R [2] is given as “inhibition of IGF1-induced IGF1R auto-phosphorylation”.

Regarding `CN1CCN(c2ccc(C(=O)Nc3n[nH]c4c3CN(S(=O)(=O)c3cc(F)cc(F)c3)CC4(C)C)c(NC(=O)C3CCOCC3)c2)CC1` [Compound 293, Tetrahydro-pyran-4-carboxylic acid [2-[5-(3,5-difluoro-benzenesulfonyl)-7,7-dimethyl-4,5,6,7-tetrahydro-1H-pyrazolo[4,3-c]pyridin-3-ylcarbamoyl]-5-(4-methyl-piperazin-1-yl)-phenyl]-amide], the IC50 in assay [1] was determined as 280 nM; at IGF1R [3], 0.14 µM. At IGF1R [2], the “inhibition of IGF1R auto-phosphorylation” value is on record as “inhibition of IGF1-induced IGF1R auto-phosphorylation”.
